Test results from patent publication US8703156B2, “Liquid formulation for deferiprone with palatable taste” (Apotex Technologies Inc., priority 2008, dated 2014).
Peptide text beside a SMILES is read from it.

Assay: degradation of Aspartame following 2 months storage
Type: physicochemical
Conditions: pH below 3.4; confirmed by degradation following 2 months storage
Excerpt: The sweetener was changed to Aspartame. After another round of taste testing the formulation with 10 g/L of Aspartame became the most acceptable formulation in terms of taste tolerability, but Aspartame is unstable at pH below 3.4 and this was confirmed by testing the degradation of Aspartame following 2 months storage.

## COC(=O)[C@H](Cc1ccccc1)NC(=O)[C@@H](N)CC(=O)O [Aspartame] (HELM PEPTIDE1{D.F.[CO[*:1]]}$$$$V2.0)
  stability of Aspartame: unstable
